Calls of active or inactive are those of the source. No cut-off for these calls is given here.
Key:
[1] = molecular target: Proteasome subunit beta type-5 (Homo sapiens) (UniProt P28074); assay: Inhibition of 26S proteasome beta 5 in human HEK293 cell lysate assessed as residual activity at 0.001 uM after 1 hr
[2] = molecular target: Proteasome subunit beta type-5 (Homo sapiens) (UniProt P28074); assay: Inhibition of 26S proteasome beta 5 in human HEK293 cell lysate assessed as residual activity at 0.167 uM after 1 hr
[3] = molecular target: Proteasome subunit beta type-5 (Homo sapiens) (UniProt P28074); assay: Inhibition of 26S proteasome beta 5 in human HEK293 cell lysate assessed as residual activity at […] after 1 hr
[4] = molecular target: Proteasome subunit beta type-5 (Homo sapiens) (UniProt P28074); assay: as above; remark: listed apart in the source
[5] = molecular target: T1, Proteasome component C5 (Homo sapiens) (UniProt P20618); assay: Inhibition of 26S proteasome beta 1 in human HEK293 cell lysate assessed as residual activity at 13.5 uM after 1 hr; assay type: cell-free
T1 sequence (whole entry): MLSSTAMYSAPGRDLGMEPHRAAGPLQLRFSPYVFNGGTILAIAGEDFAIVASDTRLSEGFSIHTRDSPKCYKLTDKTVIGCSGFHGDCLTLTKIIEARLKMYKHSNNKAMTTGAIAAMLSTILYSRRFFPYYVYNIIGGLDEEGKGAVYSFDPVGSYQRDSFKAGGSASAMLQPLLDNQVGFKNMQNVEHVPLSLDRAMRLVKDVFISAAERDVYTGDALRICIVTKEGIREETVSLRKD

[6] = molecular target: Proteasome subunit beta type-5 (Homo sapiens) (UniProt P28074); assay: Inhibition of 26S proteasome beta 5 in human HEK293 cell lysate assessed as residual activity at 0.5 uM after 1 hr
[7] = molecular target: Proteasome Macropain subunit (Homo sapiens) (UniProt P49721); assay: Inhibition of 26S proteasome beta 2 in human HEK293 cell lysate assessed as residual activity at 0.006 uM after 1 hr; assay type: cell-free
[8] = molecular target: Proteasome Macropain subunit (Homo sapiens) (UniProt P49721); assay: (§1) Inhibition of 26S proteasome beta 2 in human HEK293 cell lysate assessed as residual activity at […] after 1 hr; assay type: cell-free
[9] = molecular target: Proteasome Macropain subunit (Homo sapiens) (UniProt P49721); assay: as §1; assay type: cell-free; remark: listed apart in the source
[10] = molecular target: T1, Proteasome component C5 (Homo sapiens); assay: Inhibition of 26S proteasome beta 1 in human HEK293 cell lysate assessed as residual activity at 0.5 uM after 1 hr; assay type: cell-free
[11] = molecular target: Proteasome subunit beta type-5 (Homo sapiens) (UniProt P28074); assay: Inhibition of 26S proteasome beta 5 in human HEK293 cell lysate assessed as residual activity at 1.5 uM after 1 hr
[12] = molecular target: Proteasome Macropain subunit (Homo sapiens) (UniProt P49721); assay: Inhibition of 26S proteasome beta 2 in human HEK293 cell lysate assessed as residual activity at 0.167 uM after 1 hr; assay type: cell-free
[13] = molecular target: T1, Proteasome component C5 (Homo sapiens); assay: (§2) Inhibition of 26S proteasome beta 1 in human HEK293 cell lysate assessed as residual activity at […] after 1 hr; assay type: cell-free
[14] = molecular target: Proteasome Macropain subunit (Homo sapiens) (UniProt P49721); assay: Inhibition of 26S proteasome beta 2 in human HEK293 cell lysate assessed as residual activity at 1.5 uM after 1 hr; assay type: cell-free
[15] = molecular target: Proteasome Macropain subunit (Homo sapiens) (UniProt P49721); assay: Inhibition of 26S proteasome beta 2 in human HEK293 cell lysate assessed as residual activity at 13.5 uM after 1 hr; assay type: cell-free
[16] = molecular target: T2, Proteasome Macropain subunit MB1 (Homo sapiens) (UniProt P28074); assay: Displacement of fluorescent labeled MV151 from 26S proteasome beta 5 in human HEK293 cell lysate assessed as disappearance of band at 0.1 to 1 uM after 1 hr by SDS-PAGE; assay type: cell-free
T2 sequence (whole entry): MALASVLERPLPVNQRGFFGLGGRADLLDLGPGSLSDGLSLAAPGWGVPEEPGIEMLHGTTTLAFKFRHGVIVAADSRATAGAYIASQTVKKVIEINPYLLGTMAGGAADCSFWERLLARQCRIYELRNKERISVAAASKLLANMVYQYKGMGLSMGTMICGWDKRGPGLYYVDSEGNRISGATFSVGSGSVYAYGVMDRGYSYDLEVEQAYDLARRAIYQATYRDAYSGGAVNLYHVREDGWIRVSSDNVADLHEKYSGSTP

[17] = molecular target: Proteasome subunit beta type-5 (Homo sapiens) (UniProt P28074); assay: Inhibition of 26S proteasome beta 5 in human HEK293 cell lysate assessed as residual activity at 0.002 uM after 1 hr
[18] = molecular target: Proteasome Macropain subunit (Homo sapiens) (UniProt P49721); assay: Inhibition of 26S proteasome beta 2 in human HEK293 cell lysate assessed as residual activity at 0.001 uM after 1 hr; assay type: cell-free
[19] = molecular target: T1, Proteasome component C5 (Homo sapiens); assay: Inhibition of 26S proteasome beta 1 in human HEK293 cell lysate assessed as residual activity at 0.001 uM after 1 hr; assay type: cell-free
[20] = molecular target: Proteasome subunit beta type-5 (Homo sapiens) (UniProt P28074); assay: Inhibition of 26S proteasome beta 5 in human HEK293 cell lysate assessed as residual activity at 13.5 uM after 1 hr
[21] = molecular target: T1, Proteasome component C5 (Homo sapiens); assay: Inhibition of 26S proteasome beta 1 in human HEK293 cell lysate assessed as residual activity at 0.002 uM after 1 hr; assay type: cell-free
[22] = molecular target: T1, Proteasome component C5 (Homo sapiens); assay: Inhibition of 26S proteasome beta 1 in human HEK293 cell lysate assessed as residual activity at 0.167 uM after 1 hr; assay type: cell-free
[23] = molecular target: T1, Proteasome component C5 (Homo sapiens); assay: Displacement of fluorescent labeled MV151 from 26S proteasome beta 1 in human HEK293 cell lysate assessed as disappearance of band at 0.1 to 1 uM after 1 hr by SDS-PAGE; assay type: cell-free
[24] = molecular target: T1, Proteasome component C5 (Homo sapiens); assay: Inhibition of 26S proteasome beta 1 in human HEK293 cell lysate assessed as residual activity at 1.5 uM after 1 hr; assay type: cell-free
[25] = molecular target: Proteasome Macropain subunit (Homo sapiens) (UniProt P49721); assay: Inhibition of 26S proteasome beta 2 in human HEK293 cell lysate assessed as residual activity at 0.5 uM after 1 hr; assay type: cell-free
[26] = molecular target: Proteasome Macropain subunit (Homo sapiens) (UniProt P49721); assay: Inhibition of 26S proteasome beta 2 in human HEK293 cell lysate assessed as residual activity at 0.019 uM after 1 hr; assay type: cell-free
[27] = molecular target: T1, Proteasome component C5 (Homo sapiens); assay: Inhibition of 26S proteasome beta 1 in human HEK293 cell lysate assessed as residual activity at 0.019 uM after 1 hr; assay type: cell-free
[28] = molecular target: Proteasome subunit beta type-5 (Homo sapiens) (UniProt P28074); assay: Inhibition of 26S proteasome beta 5 in human HEK293 cell lysate assessed as residual activity at 0.019 uM after 1 hr
[29] = molecular target: Proteasome subunit beta type-5 (Homo sapiens) (UniProt P28074); assay: Inhibition of 26S proteasome beta 5 in human HEK293 cell lysate assessed as residual activity at 0.006 uM after 1 hr
[30] = molecular target: T1, Proteasome component C5 (Homo sapiens); assay: Inhibition of 26S proteasome beta 1 in human HEK293 cell lysate assessed as residual activity at 0.006 uM after 1 hr; assay type: cell-free
[31] = molecular target: T1, Proteasome component C5 (Homo sapiens); assay: as §2; assay type: cell-free; remark: listed apart in the source
[32] = molecular target: Proteasome Macropain subunit (Homo sapiens) (UniProt P49721); assay: Inhibition of 26S proteasome beta 2 in human HEK293 cell lysate assessed as residual activity at 0.002 uM after 1 hr; assay type: cell-free
[33] = molecular target: T1, Proteasome component C5 (Homo sapiens); assay: Displacement of fluorescent labeled MV151 from 26S proteasome beta 1 in human HEK293 cell lysate assessed as residual activity at 100 uM after 1 hr by SDS-PAGE; assay type: cell-free
[34] = molecular target: T2, Proteasome Macropain subunit MB1 (Homo sapiens); assay: Displacement of fluorescent labeled MV151 from 26S proteasome beta 5 in human HEK293 cell lysate assessed as residual activity at 1 uM after 1 hr by SDS-PAGE; assay type: cell-free
[35] = molecular target: Proteasome Macropain subunit (Homo sapiens) (UniProt P49721); assay: Displacement of fluorescent labeled MV151 from 26S proteasome beta 2 in human HEK293 cell lysate assessed as residual activity at 100 uM after 1 hr by SDS-PAGE; assay type: cell-free
[36] = molecular target: T1, Proteasome component C5 (Homo sapiens); assay: Displacement of fluorescent labeled MV151 from 26S proteasome beta 1 in human HEK293 cell lysate assessed as residual activity at 1 uM after 1 hr by SDS-PAGE; assay type: cell-free
[37] = molecular target: Proteasome Macropain subunit (Homo sapiens) (UniProt P49721); assay: Displacement of fluorescent labeled MV151 from 26S proteasome beta 2 in human HEK293 cell lysate assessed as residual activity at 1 uM after 1 hr by SDS-PAGE; assay type: cell-free
[38] = molecular target: T2, Proteasome Macropain subunit MB1 (Homo sapiens); assay: Displacement of fluorescent labeled MV151 from 26S proteasome beta 5 in human HEK293 cell lysate assessed as residual activity at 100 uM after 1 hr by SDS-PAGE; assay type: cell-free

Proteasome Macropain subunit (Homo sapiens), sequence (P49721 whole entry): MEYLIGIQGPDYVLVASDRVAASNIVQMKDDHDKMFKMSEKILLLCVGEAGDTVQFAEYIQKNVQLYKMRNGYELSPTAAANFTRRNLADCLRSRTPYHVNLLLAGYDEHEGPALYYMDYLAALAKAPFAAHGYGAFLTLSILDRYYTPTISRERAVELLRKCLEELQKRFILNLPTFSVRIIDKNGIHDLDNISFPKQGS

## CC(C)C[C@H](NC(=O)[C@H](Cc1cc(C(F)(F)F)cc(C(F)(F)F)c1)NC(=O)c1cnccn1)B1OC2C[C@@H]3C[C@@H](C3(C)C)[C@]2(C)O1 (some centres undefined)
[1]
  Activity: 35.5%
[2]
  Activity: 8.8%
[3]
  Activity: 14.3%
[4]
  Activity: 2.7%
[5]
  Activity: 0.5%
[6]
  Activity: 7.7%
[7]
  Activity: 109%
[8]
  Activity: 122%
[9]
  Activity: 63.7%
[10]
  Activity: 17%
[11]
  Activity: 5.4%
[12]
  Activity: 94.3%
[13]
  Activity: 79.1%
[14]
  Activity: 78.5%
[15]
  Activity: 38.5%
[16]
  Activity: Active
[17]
  Activity: 41.3%
[18]
  Activity: 100%
[19]
  Activity: 99.9%
[20]
  Activity: 0.7%
[21]
  Activity: 102%
[22]
  Activity: 45.2%
[23]
  Activity: Active
[24]
  Activity: 3.1%
[25]
  Activity: 103%
[26]
  Activity: 118%
[27]
  Activity: 92.3%
[28]
  Activity: 21.2%
[29]
  Activity: 23.3%
[30]
  Activity: 93.2%
[31]
  Activity: 1.1%
[32]
  Activity: 93.1%

## CC(C)C[C@H](NC(=O)[C@H](Cc1ccccc1)NC(=O)[C@H](Cc1cc(C(F)(F)F)cc(C(F)(F)F)c1)NC(=O)[C@H](Cc1ccccc1)N=[N+]=[N-])C(=O)[C@@]1(C)CO1
[1]
  Activity: 116%
[2]
  Activity: 44.3%
[33]
  Activity: 80%
[3]
  Activity: 70.5%
[34]
  Activity: 78%
[4]
  Activity: 11%
[5]
  Activity: 61.3%
[6]
  Activity: 20.5%
[7]
  Activity: 100%
[8]
  Activity: 105%
[9]
  Activity: 92.9%
[35]
  Activity: 128%
[36]
  Activity: 167%
[10]
  Activity: 104%
[11]
  Activity: 9.8%
[12]
  Activity: 98.4%
[13]
  Activity: 116%
[14]
  Activity: 113%
[15]
  Activity: 73.4%
[17]
  Activity: 101%
[18]
  Activity: 118%
[19]
  Activity: 112%
[20]
  Activity: 5.1%
[21]
  Activity: 92.8%
[37]
  Activity: 3.1%
[38]
  Activity: 3%
[22]
  Activity: 85.7%
[24]
  Activity: 104%
[25]
  Activity: 110%
[26]
  Activity: 100%
[27]
  Activity: 94.7%
[28]
  Activity: 94.4%
[29]
  Activity: 93.5%
[30]
  Activity: 96.9%
[31]
  Activity: 90.3%
[32]
  Activity: 104%

## CC(C)C[C@H](NC(=O)[C@H](Cc1cc(C(F)(F)F)cc(C(F)(F)F)c1)NC(=O)[C@H](Cc1ccccc1)NC(=O)[C@H](Cc1ccccc1)N=[N+]=[N-])C(=O)[C@@]1(C)CO1
[1]
  Activity: 109%
[2]
  Activity: 34.9%
[33]
  Activity: 61%
[3]
  Activity: 66.2%
[34]
  Activity: 45%
[4]
  Activity: 5.2%
[5]
  Activity: 50.3%
[6]
  Activity: 19.7%
[7]
  Activity: 105%
[8]
  Activity: 111%
[9]
  Activity: 77.1%
[35]
  Activity: 92%
[36]
  Activity: 156%
[10]
  Activity: 89.9%
[11]
  Activity: 9.5%
[12]
  Activity: 112%
[13]
  Activity: 103%
[14]
  Activity: 97.3%
[15]
  Activity: 57.9%
[17]
  Activity: 97%
[18]
  Activity: 106%
[19]
  Activity: 106%
[20]
  Activity: 3%
[21]
  Activity: 102%
[37]
  Activity: 4.3%
[38]
  Activity: 2.6%
[22]
  Activity: 93.5%
[24]
  Activity: 82.8%
[25]
  Activity: 99.1%
[26]
  Activity: 111%
[27]
  Activity: 98.1%
[28]
  Activity: 100%
[29]
  Activity: 92.2%
[30]
  Activity: 97.8%
[31]
  Activity: 67.7%
[32]
  Activity: 99.6%

Reference: ChEMBL document CHEMBL1157550, “Incorporation of fluorinated phenylalanine generates highly specific inhibitor of proteasome's chymotrypsin-like sites” (J Med Chem, 2010)
